This is an account of results in ChEMBL document CHEMBL5608234, “Heat Shock Protein 90 Interactome-Mediated Proteolysis Targeting Chimera (HIM-PROTAC) Degrading Glutathione Peroxidase 4 to Trigger Ferroptosis” (J Med Chem, 2024).

Series [1] relates to HT-1080. The experiment in a line: HIM-PROTAC activity at GPX4/HSP90/E3 ligase in human HT-1080 cells assessed as reduction in GPX4 level at 0.1 to 3 uM incubated for 24 hrs by Western blotting analysis. It is filed as cell-based. The following applies: dose 0.1-3 µM.
Series [2] has as its system HT-1080. The experiment in a line: Cytotoxicity against human HT-1080 cells incubated for 48 hrs by CCK-8 assay. The following applies: HT-1080, 48 h. It is filed as functional, cell-based.
For series [3], the system named is HT-1080. The experiment in a line: HIM-PROTAC activity at GPX4/HSP90/E3 ligase in human HT-1080 cells assessed as reduction in GPX4 level at 1 uM incubated for 24 hrs in presence of 2-chloro-N-(3-chloro-4-methoxyphenyl)-N-(2-oxo-2-(phenethylamino)-1-(thiophen-2-yl)ethyl)acetamide by Western blotting analysis. The series is classed as cell-based.
The nature of series [4]: Toxicity in BALB/c mouse xenografted with human HT-1080 cells assessed as animal death at 25 mg/kg, ip administered once daily measured after 10 days in presence of 2-chloro-N-(3-chloro-4-methoxyphenyl)-N-(2-oxo-2-(phenethylamino)-1-(thiophen-2-yl)ethyl)acetamide. The following applies: in vivo, 240 h, time 10 day. The series is classed as organism-based.
In series [5] the test system is HT-1080. Description: HIM-PROTAC activity at GPX4/HSP90/E3 ligase in human HT-1080 cells assessed as reduction in GPX4 level at 1 uM incubated for 24 hrs by Western blotting analysis. It is filed as cell-based.
The test system of series [6] is HT-1080. Description: HIM-PROTAC activity at GPX4/HSP90/E3 ligase in human HT-1080 cells assessed as reduction in GPX4 level at 0.3 uM incubated for 24 hrs by Western blotting analysis relative to control. The series is classed as cell-based. More on the design: scale not given: the % may be the effect or the level left.
In series [7] the test system is HT-1080. Description: Cytotoxicity against human HT-1080 cells incubated for 48 hrs in presence of Fer-1 by CCK-8 assay. The series is classed as functional, cell-based. The following applies: HT-1080, 48 h.
Series [8] relates to HT-1080. Description: Induction of ferroptosis in human HT-1080 cells assessed as fold increase in cytotoxic IC50 incubated for 48 hrs in presence of Fer-1 by CCK-8 assay. It is filed as functional.
Series [9] concerns HT-1080. Description: HIM-PROTAC activity at GPX4/HSP90/E3 ligase in human HT-1080 cells assessed as reduction in GPX4 level at 1 uM incubated for 24 hrs in presence of 6-chloro-9-((4-methoxy-3,5-dimethylpyridin-2-yl)methyl)-9H-purin-2-amine by Western blotting analysis. The series is classed as cell-based.
A short description of series [10]: Toxicity in BALB/c mouse xenografted with human HT-1080 cells assessed as animal death at 25 mg/kg, ip administered once daily measured after 10 days in presence of 6-chloro-9-((4-methoxy-3,5-dimethylpyridin-2-yl)methyl)-9H-purin-2-amine. It is filed as organism-based. The following applies: in vivo, 240 h, time 10 day.

Structures are written as SMILES. Active and inactive are the calls of the source. No cut-off for these calls is given here.

As for `Nc1ncnc2c1nc(Sc1cc3c(cc1I)OCO3)n2CCNC(=O)CCNC(=O)Cn1cc(COc2ccc(N(C(=O)CCl)C(C(=O)NCCc3ccccc3)c3cccs3)cc2Cl)nn1` (centres undefined), the result in the series on HT-1080 [1] was Active. In the series with HT-1080 [2], this molecule had a half-inhibitory concentration (IC50) of 56100 nM.
As for `COc1c(C)cnc(Cn2cnc3c(Cl)nc(N)nc32)c1C` [BIIB021], the outcome with HT-1080 [3] and in the series with HT-1080 [5] was inactive. Moreover, in [4], the Activity result is listed as “Toxic”. The IC50 in the series with HT-1080 [2] came to 16200 nM.
For the molecule `COc1c(C)cnc(Cn2cnc3c(N4CCC(C5CCN(C(=O)Cn6cc(COc7ccc(N(C(=O)CCl)C(C(=O)NCCc8ccccc8)c8cccs8)cc7Cl)nn6)CC5)CC4)nc(N)nc32)c1C` (centres undefined), the result in the series on HT-1080 [1] was Active. The molecule further displayed an IC50 with HT-1080 [2] of 980 nM.
Taken in the same sequence, the figures for `COc1c(C)cnc(Cn2cnc3c(NCCOCCOCCNC(=O)Cn4cc(COc5ccc(N(C(=O)CCl)C(C(=O)NCCc6ccccc6)c6cccs6)cc5Cl)nn4)nc(N)nc32)c1C` (centres undefined) were “Active” and 2600 nM.
Taken in the same sequence, the figures for `NCCC1CCN(C(=O)Cn2cc(COc3ccc(N(C(=O)CCl)C(C(=O)NCCc4ccccc4)c4cccs4)cc3Cl)nn2)CC1` (centres undefined) were “Active” and 8300 nM.
For `COc1c(C)cnc(Cn2cnc3c(NCCC4CCN(C(=O)Cn5cc(COc6ccc(N(C(=O)CCl)C(C(=O)NCCc7ccccc7)c7cccs7)cc6Cl)nn5)CC4)nc(NC(C)=O)nc32)c1C` (centres undefined), the result in the series with HT-1080 [1] was Active. Moreover, in the series on HT-1080 [2], it took 15500 nM to reach half-maximal inhibition (IC50).
Taken in the same sequence, the figures for `COc1c(C)cnc(Cn2cnc3c(N4CCN(C(=O)Cn5cc(COc6ccc(N(C(=O)CCl)C(C(=O)NCCc7ccccc7)c7cccs7)cc6Cl)nn5)CC4)nc(N)nc32)c1C` (centres undefined) were “Active” and 4100 nM.
The like results for `COc1c(C)cnc(Cn2cnc3c(N4CCC(NC(=O)Cn5cc(COc6ccc(N(C(=O)CCl)C(C(=O)NCCc7ccccc7)c7cccs7)cc6Cl)nn5)CC4)nc(N)nc32)c1C` (centres undefined) were, in that order, “Active” and 2400 nM.
On to `O=C1CCC(N2C(=O)c3cccc(NCCOCCOCCOCCn4cc(COc5ccc(N(C(=O)CCl)C(C(=O)NCCc6ccccc6)c6cccs6)cc5Cl)nn4)c3C2=O)C(=O)N1` (centres undefined), for which the outcome with HT-1080 [5] was Active. In addition, in the series on HT-1080 [2], the IC50 came out at 490 nM.
Regarding `COc1c(C)cnc(Cn2cnc3c(NCCOCCOCCOCCNC(=O)Cn4cc(COc5ccc(N(C(=O)CCl)C(C(=O)NCCc6ccccc6)c6cccs6)cc5Cl)nn4)nc(N)nc32)c1C` (centres undefined), the result in the series with HT-1080 [1] was Active. Also, half-maximal inhibition in the series with HT-1080 [2] (IC50) was put at 3200 nM.
The like results for `Nc1ncnc2c1nc(Sc1cc3c(cc1I)OCO3)n2CCNC(=O)Cn1cc(COc2ccc(N(C(=O)CCl)C(C(=O)NCCc3ccccc3)c3cccs3)cc2Cl)nn1` (centres undefined) were, in that order, “Active” and 900 nM.
Take `COc1c(C)cnc(Cn2cnc3c(N4CCC(N5CCN(C(=O)Cn6cc(COc7ccc(N(C(=O)CCl)C(C(=O)NCCc8ccccc8)c8cccs8)cc7Cl)nn6)CC5)CC4)nc(N)nc32)c1C` (centres undefined): in the series with HT-1080 [1], the result was Active. In the series with HT-1080 [2], the IC50 was determined as 1400 nM.
For `COc1c(C)cnc(Cn2cnc3c(NCCOCCNC(=O)Cn4cc(COc5ccc(N(C(=O)CCl)C(C(=O)NCCc6ccccc6)c6cccs6)cc5Cl)nn4)nc(N)nc32)c1C` (centres undefined), the outcome in the series with HT-1080 [1] was Active. Also, the IC50 in the series on HT-1080 [2] worked out at 2400 nM.
In the case of `Nc1ncnc2c1nc(Sc1cc3c(cc1I)OCO3)n2CCCCCNC(=O)Cn1cc(COc2ccc(N(C(=O)CCl)C(C(=O)NCCc3ccccc3)c3cccs3)cc2Cl)nn1` (centres undefined), the result with HT-1080 [1] was Active. In the series on HT-1080 [6], the Activity was less than 50%. Also, the midpoint of inhibition in the series with HT-1080 [2], the IC50, lay at 1300 nM.
Regarding `COc1c(C)cnc(Cn2cnc3c(NCCOCCOCCOCCOCCOCCn4cc(COc5ccc(N(C(=O)CCl)C(C(=O)NCCc6ccccc6)c6cccs6)cc5Cl)nn4)nc(N)nc32)c1C` (centres undefined), the result in the series on HT-1080 [1] was Active. The IC50 with HT-1080 [2] was determined as 3500 nM.
Turning to `COc1c(C)cnc(Cn2cnc3c(NCCOCCOCCOCCOCCNC(=O)Cn4cc(COc5ccc(N(C(=O)CCl)C(C(=O)NCCc6ccccc6)c6cccs6)cc5Cl)nn4)nc(N)nc32)c1C` (centres undefined), the result in the series on HT-1080 [1] was Active. Moreover, the IC50 in the series with HT-1080 [2] was 15200 nM.
Taken in the same sequence, the figures for `COc1c(C)cnc(Cn2cnc3c(NCCOCCOCCn4cc(COc5ccc(N(C(=O)CCl)C(C(=O)NCCc6ccccc6)c6cccs6)cc5Cl)nn4)nc(N)nc32)c1C` (centres undefined) were “Active” and 1000 nM.
The like results for `COc1c(C)cnc(Cn2cnc3c(NCCCCNC(=O)Cn4cc(COc5ccc(N(C(=O)CCl)C(C(=O)NCCc6ccccc6)c6cccs6)cc5Cl)nn4)nc(N)nc32)c1C` (centres undefined) were, in that order, “Active” and 1100 nM.
Regarding `Nc1ncnc2c1nc(Sc1cc3c(cc1I)OCO3)n2CCOCCOCCNC(=O)Cn1cc(COc2ccc(N(C(=O)CCl)C(C(=O)NCCc3ccccc3)c3cccs3)cc2Cl)nn1` (centres undefined), the result with HT-1080 [1] was Active. Also, in the series with HT-1080 [2], the midpoint of inhibition, the IC50, lay at 1500 nM.
In the case of `COc1ccc(N(C(=O)CCl)C(C(=O)NCCc2ccccc2)c2cccs2)cc1Cl` (centres undefined), the result with HT-1080 [5] and with HT-1080 [9] was inactive. Moreover, the values for the IC50 with HT-1080 [7] and with HT-1080 [2] were 2000 nM and 760 nM, respectively. In addition, in the series on HT-1080 [8], the “fold change (FC)” value worked out at 3. Moreover, in [10], the Activity result is listed as “Toxic”.
As to `Nc1ncnc2c1nc(Sc1cc3c(cc1I)OCO3)n2CCNC(=O)CCCCCNC(=O)Cn1cc(COc2ccc(N(C(=O)CCl)C(C(=O)NCCc3ccccc3)c3cccs3)cc2Cl)nn1` (centres undefined), the outcome with HT-1080 [1] was Active. For the same molecule, in the series with HT-1080 [2], the IC50 was 41500 nM.
